Source: the supplement of paper PMC10307832

Key:
Experiment in all cases: relative viability (nuclei count vs DMSO), 5 days (fraction); higher = more cells survive
[1] = tested on: NCI-H661; settings: first compound 0.1 µM
In short: (§1)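 Relative viability is defined as nuclei in treated wells over nuclei in vehicle wells. Duplicate plates were run and medians reported. Lung cancer cell lines in 1536-well plates were dosed by pin tool one day after seeding, with one drug or with a fixed anchor-drug dose plus five library-drug doses (not always all listed) in √10 steps, and nuclei were counted after 5 days.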

[2] = tested on: A-427
In short: as §1

[3] = tested on: NCI-H460
In short: as §1

[4] = tested on: NCI-H1734
In short: as §1

[5] = tested on: COR-L23
In short: as §1

[6] = tested on: HOP-62
In short: as §1

[7] = tested on: 201T
In short: as §1

[8] = tested on: BEN
In short: as §1

[9] = tested on: LK-2
In short: as §1

[10] = tested on: NCI-H1915
In short: as §1

[11] = tested on: EKVX
In short: as §1

[12] = tested on: PC-14
In short: as §1

For `Cc1cn(-c2cc(NC(=O)c3ccc(C)c(Nc4nccc(-c5cccnc5)n4)c3)cc(C(F)(F)F)c2)cn1` [Nilotinib] + CC(=O)Nc1cccc(-n2c(=O)n(C3CC3)c(=O)c3c(Nc4ccc(I)cc4F)n(C)c(=O)c(C)c32)c1 [Trametinib] (partner 0.02 µM), the relative viability [1] was 0.367, the relative viability ([2]; first compound 0.001 µM) was 0.812 and the relative viability ([2]; first compound 0.003162 µM) was 0.567. The relative viability ([2]; first compound 0.01 µM) was 0.73, the relative viability ([2]; first compound 0.03162 µM) was 0.522 and the relative viability ([2]; first compound 0.1 µM) was 0.556. It also gave a relative viability ([3]; first compound 0.003162 µM) of 0.127, a relative viability ([3]; first compound 0.01 µM) of 0.0752 and a relative viability ([3]; first compound 0.03162 µM) of 0.108. The relative viability ([3]; first compound 0.1 µM) was 0.0424, the relative viability ([4]; first compound 0.001 µM) was 0.57 and the relative viability ([4]; first compound 0.003162 µM) was 0.664. The relative viability ([4]; first compound 0.01 µM) was 0.547, the relative viability ([4]; first compound 0.03162 µM) was 0.345 and the relative viability ([4]; first compound 0.1 µM) was 0.349. It also gave a relative viability ([5]; first compound 0.001 µM) of 0.472, a relative viability ([5]; first compound 0.003162 µM) of 0.419 and a relative viability ([5]; first compound 0.01 µM) of 0.384. It also gave a relative viability ([5]; first compound 0.03162 µM) of 0.283, a relative viability ([5]; first compound 0.1 µM) of 0.266 and a relative viability ([6]; first compound 0.001 µM) of 0.387. It also gave a relative viability ([6]; first compound 0.003162 µM) of 0.364, a relative viability ([6]; first compound 0.1 µM) of 0.277 and a relative viability ([7]; first compound 0.001 µM) of 0.709. For the same molecule, the relative viability ([7]; first compound 0.003162 µM) was 0.749, the relative viability ([7]; first compound 0.01 µM) was 0.739 and the relative viability ([7]; first compound 0.03162 µM) was 0.717. It also gave a relative viability ([7]; first compound 0.1 µM) of 0.728, a relative viability ([8]; first compound 0.001 µM) of 0.98 and a relative viability ([8]; first compound 0.003162 µM) of 0.931. It also gave a relative viability ([8]; first compound 0.01 µM) of 1.01, a relative viability ([8]; first compound 0.03162 µM) of 0.954 and a relative viability ([8]; first compound 0.1 µM) of 1.15. The relative viability ([9]; first compound 0.001 µM) was 0.514, the relative viability ([9]; first compound 0.003162 µM) was 0.515 and the relative viability ([9]; first compound 0.01 µM) was 0.687. It also gave a relative viability ([9]; first compound 0.03162 µM) of 0.46, a relative viability ([9]; first compound 0.1 µM) of 0.608 and a relative viability ([10]; first compound 0.001 µM) of 0.237. It also gave a relative viability ([10]; first compound 0.003162 µM) of 0.283, a relative viability ([10]; first compound 0.01 µM) of 0.224 and a relative viability ([10]; first compound 0.03162 µM) of 0.151. The relative viability ([10]; first compound 0.1 µM) was 0.164, the relative viability ([11]; first compound 0.001 µM) was 0.336 and the relative viability ([11]; first compound 0.003162 µM) was 0.351. The relative viability ([11]; first compound 0.01 µM) was 0.352, the relative viability ([11]; first compound 0.03162 µM) was 0.355 and the relative viability ([11]; first compound 0.1 µM) was 0.734. The relative viability ([12]; first compound 0.001 µM) was 0.671, the relative viability ([12]; first compound 0.003162 µM) was 1.14 and the relative viability ([12]; first compound 0.01 µM) was 0.708. The relative viability ([12]; first compound 0.03162 µM) was 0.448 and the relative viability ([12]; first compound 0.1 µM) was 0.526.
